Reference: ChEMBL document CHEMBL1135258, “Substrate spectrum of tyrocidine thioesterase probed with randomized peptide N-acetylcysteamine thioesters” (Bioorg Med Chem Lett, 2002)

Columns and labels:
[1] = biological target: T1, Thioesterase GrsT homolog tycF (Brevibacillus brevis) (UniProt O30412); test: Apparent kinetic constant (Kcat) for tyrocidine thioesterase amplified from Bacillus brevis (ATCC8185)
T1 sequence (whole entry): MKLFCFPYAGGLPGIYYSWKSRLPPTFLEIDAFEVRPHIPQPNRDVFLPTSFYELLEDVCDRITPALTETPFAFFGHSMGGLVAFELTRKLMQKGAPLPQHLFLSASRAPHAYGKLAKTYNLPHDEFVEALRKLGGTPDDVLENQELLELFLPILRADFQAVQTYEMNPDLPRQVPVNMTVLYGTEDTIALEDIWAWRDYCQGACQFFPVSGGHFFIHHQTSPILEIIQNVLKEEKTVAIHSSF

[2] = biological target: T1, Thioesterase GrsT homolog tycF (Brevibacillus brevis); test: Catalytic efficiency (Kcat/Km) was determined; set-up: unit not given here

Structure (SMILES) | k cat [1] | Ratio [2]
CC(=O)NCCSC(=O)[C@H](CC(C)C)NC(=O)[C@H](CCCN)NC(=O)[C@@H](NC(=O)[C@H](Cc1ccc(O)cc1)NC(=O)[C@H](CC(N)=O)NC(=O)[C@H](CC(N)=O)NC(=O)[C@@H](Cc1ccccc1)NC(=O)[C@H](Cc1ccccc1)NC(=O)[C@@H]1CCCN1C(=O)[C@H](N)Cc1ccccc1)C(C)C | 1.33 s⁻¹ | 0.72
CC(=O)NCCSC(=O)[C@H](CC(C)C)NC(=O)[C@H](CCCN)NC(=O)[C@@H](NC(=O)[C@H](Cc1ccc(O)cc1)NC(=O)[C@@H](NC(=O)[C@H](CC(N)=O)NC(=O)[C@@H](Cc1ccccc1)NC(=O)[C@H](Cc1ccccc1)NC(=O)[C@@H]1CCCN1C(=O)[C@H](N)Cc1ccccc1)C(C)C)C(C)C | 0.16 s⁻¹ | 0.18
CC[C@H](C)[C@H](NC(=O)[C@H](Cc1ccccc1)NC(=O)[C@@H]1CCCN1C(=O)[C@H](N)Cc1ccccc1)C(=O)N[C@@H](CC(N)=O)C(=O)N[C@@H](CCC(N)=O)C(=O)N[C@@H](Cc1ccc(O)cc1)C(=O)N[C@H](C(=O)N[C@@H](CCCN)C(=O)N[C@@H](CC(C)C)C(=O)SCCNC(C)=O)C(C)C | 0.183 s⁻¹ | 0.33
CC(=O)NCCSC(=O)[C@H](CC(C)C)NC(=O)[C@H](CCCN)NC(=O)[C@@H](NC(=O)[C@H](Cc1ccc(O)cc1)NC(=O)[C@H](CCC(N)=O)NC(=O)[C@@H](NC(=O)[C@@H](Cc1ccccc1)NC(=O)[C@H](Cc1ccccc1)NC(=O)[C@@H]1CCCN1C(=O)[C@H](N)Cc1ccccc1)C(C)C)C(C)C | 0.12 s⁻¹ | 0.29
CC(=O)NCCSC(=O)[C@H](CC(C)C)NC(=O)[C@H](CCCN)NC(=O)[C@@H](NC(=O)[C@H](Cc1ccc(O)cc1)NC(=O)[C@H](CCC(N)=O)NC(=O)[C@H](CC(N)=O)NC(=O)[C@H](CC(N)=O)NC(=O)[C@H](Cc1ccccc1)NC(=O)[C@@H]1CCCN1C(=O)[C@H](N)Cc1ccccc1)C(C)C | 0.133 s⁻¹ | 0.42
CC(=O)NCCSC(=O)[C@H](CC(C)C)NC(=O)[C@H](CCCN)NC(=O)[C@@H](NC(=O)[C@H](Cc1ccc(O)cc1)NC(=O)[C@H](CC(C)C)NC(=O)[C@H](CC(N)=O)NC(=O)[C@@H](Cc1ccccc1)NC(=O)[C@H](Cc1ccccc1)NC(=O)[C@@H]1CCCN1C(=O)[C@H](N)Cc1ccccc1)C(C)C | 0.717 s⁻¹ | 0.32
CC(=O)NCCSC(=O)[C@H](CC(C)C)NC(=O)[C@H](CCCN)NC(=O)[C@@H](NC(=O)[C@H](Cc1ccc(O)cc1)NC(=O)[C@H](CCC(N)=O)NC(=O)[C@H](CC(N)=O)NC(=O)[C@H](Cc1c[nH]c2ccccc12)NC(=O)[C@H](Cc1ccccc1)NC(=O)[C@@H]1CCCN1C(=O)[C@H](N)Cc1ccccc1)C(C)C | 0.12 s⁻¹ | 0.95
CSCC[C@H](NC(=O)[C@H](Cc1ccccc1)NC(=O)[C@@H]1CCCN1C(=O)[C@H](N)Cc1ccccc1)C(=O)N[C@@H](CC(N)=O)C(=O)N[C@@H](CCC(N)=O)C(=O)N[C@@H](Cc1ccc(O)cc1)C(=O)N[C@H](C(=O)N[C@@H](CCCN)C(=O)N[C@@H](CC(C)C)C(=O)SCCNC(C)=O)C(C)C | 0.267 s⁻¹ | 0.8
CC(=O)NCCSC(=O)[C@H](CC(C)C)NC(=O)[C@H](CCCN)NC(=O)[C@@H](NC(=O)[C@H](Cc1ccc(O)cc1)NC(=O)[C@H](CCC(N)=O)NC(=O)[C@H](CC(C)C)NC(=O)[C@@H](Cc1ccccc1)NC(=O)[C@H](Cc1ccccc1)NC(=O)[C@@H]1CCCN1C(=O)[C@H](N)Cc1ccccc1)C(C)C | 0.167 s⁻¹ | 0.23
CC(=O)NCCSC(=O)[C@H](CC(C)C)NC(=O)[C@H](CCCN)NC(=O)[C@@H](NC(=O)[C@H](Cc1ccc(O)cc1)NC(=O)[C@H](CCC(N)=O)NC(=O)[C@H](CC(N)=O)NC(=O)[C@H](CO)NC(=O)[C@H](Cc1ccccc1)NC(=O)[C@@H]1CCCN1C(=O)[C@H](N)Cc1ccccc1)C(C)C | 0.13 s⁻¹ | 0.57
CC(=O)NCCSC(=O)[C@H](CC(C)C)NC(=O)[C@H](CCCN)NC(=O)[C@@H](NC(=O)[C@H](Cc1ccc(O)cc1)NC(=O)[C@H](CCC(N)=O)NC(=O)[C@H](CC(N)=O)NC(=O)[C@@H](Cc1ccccc1)NC(=O)[C@H](Cc1ccccc1)NC(=O)[C@@H]1CCCN1C(=O)[C@H](N)Cc1ccccc1)C(C)C (stereo in doubt; form 1) | 0.733 s⁻¹ | 4.78
CC(=O)NCCSC(=O)[C@H](CC(C)C)NC(=O)[C@H](CCCN)NC(=O)[C@H](CCCN=C(N)N)NC(=O)[C@H](Cc1ccc(O)cc1)NC(=O)[C@H](CCC(N)=O)NC(=O)[C@H](CC(N)=O)NC(=O)[C@@H](Cc1ccccc1)NC(=O)[C@H](Cc1ccccc1)NC(=O)[C@@H]1CCCN1C(=O)[C@H](N)Cc1ccccc1 | 0.15 s⁻¹ | 0.28
CC(=O)NCCSC(=O)[C@H](CC(C)C)NC(=O)[C@H](CCCN)NC(=O)[C@@H](NC(=O)[C@H](Cc1ccc(O)cc1)NC(=O)[C@H](CCC(N)=O)NC(=O)[C@H](CC(N)=O)NC(=O)[C@H](CC(C)C)NC(=O)[C@H](Cc1ccccc1)NC(=O)[C@@H]1CCCN1C(=O)[C@H](N)Cc1ccccc1)C(C)C | 0.138 s⁻¹ | 0.28
CC(=O)NCCSC(=O)[C@H](CC(C)C)NC(=O)[C@H](CCCN)NC(=O)[C@@H](NC(=O)[C@H](CC(N)=O)NC(=O)[C@H](CCC(N)=O)NC(=O)[C@H](CC(N)=O)NC(=O)[C@@H](Cc1ccccc1)NC(=O)[C@H](Cc1ccccc1)NC(=O)[C@@H]1CCCN1C(=O)[C@H](N)Cc1ccccc1)C(C)C | 0.333 s⁻¹ | 2.63
CC(=O)NCCSC(=O)[C@H](CC(C)C)NC(=O)[C@H](CCCN)NC(=O)[C@@H](NC(=O)[C@H](Cc1ccc(O)cc1)NC(=O)[C@H](CCC(N)=O)NC(=O)[C@H](CC(N)=O)NC(=O)CNC(=O)[C@H](Cc1ccccc1)NC(=O)[C@@H]1CCCN1C(=O)[C@H](N)Cc1ccccc1)C(C)C | 0.133 s⁻¹ | 0.36
CC(=O)NCCSC(=O)[C@H](CC(C)C)NC(=O)[C@H](CCCN)NC(=O)[C@@H](NC(=O)[C@H](Cc1ccc(O)cc1)NC(=O)[C@H](CCC(N)=O)NC(=O)[C@H](CC(N)=O)NC(=O)[C@@H](Cc1ccccc1)NC(=O)[C@H](Cc1ccccc1)NC(=O)[C@H](CC(N)=O)NC(=O)[C@H](N)Cc1ccccc1)C(C)C | 0.117 s⁻¹ | 0.084
CC(=O)NCCSC(=O)[C@H](CC(C)C)NC(=O)[C@H](CCCN)NC(=O)[C@@H](NC(=O)[C@H](Cc1ccc(O)cc1)NC(=O)[C@H](CCC(N)=O)NC(=O)[C@H](CC(N)=O)NC(=O)[C@@H](Cc1ccccc1)NC(=O)[C@H](CC(N)=O)NC(=O)[C@@H]1CCCN1C(=O)[C@H](N)Cc1ccccc1)C(C)C | 0.233 s⁻¹ | 0.083
CC(=O)NCCSC(=O)[C@H](CC(C)C)NC(=O)[C@H](CCCN)NC(=O)[C@@H](NC(=O)[C@H](Cc1ccc(O)cc1)NC(=O)[C@H](CCC(N)=O)NC(=O)[C@H](CC(N)=O)NC(=O)[C@H](CCCCN)NC(=O)[C@H](Cc1ccccc1)NC(=O)[C@@H]1CCCN1C(=O)[C@H](N)Cc1ccccc1)C(C)C | 0.233 s⁻¹ | 0.92
CC(=O)NCCSC(=O)[C@H](CC(C)C)NC(=O)[C@H](CCCN)NC(=O)[C@@H](NC(=O)[C@H](Cc1ccc(O)cc1)NC(=O)[C@H](CCC(N)=O)NC(=O)[C@H](CC(N)=O)NC(=O)[C@@H](NC(=O)[C@H](Cc1ccccc1)NC(=O)[C@@H]1CCCN1C(=O)[C@H](N)Cc1ccccc1)C(C)C)C(C)C | 0.45 s⁻¹ | 0.19
CC(=O)NCCSC(=O)[C@H](CC(C)C)NC(=O)[C@H](CCCN)NC(=O)[C@@H](NC(=O)[C@H](Cc1ccc(O)cc1)NC(=O)[C@H](CCC(N)=O)NC(=O)[C@H](CC(N)=O)NC(=O)[C@H](Cc1ccccc1)NC(=O)[C@H](Cc1ccccc1)NC(=O)[C@@H]1CCCN1C(=O)[C@H](N)Cc1ccccc1)C(C)C | 0.105 s⁻¹ | 1.3
CC(=O)NCCSC(=O)[C@H](CC(C)C)NC(=O)[C@H](CCCN)NC(=O)[C@@H](NC(=O)[C@H](Cc1ccc(O)cc1)NC(=O)[C@H](CCC(N)=O)NC(=O)[C@H](CC(N)=O)NC(=O)[C@@H](Cc1ccccc1)NC(=O)[C@H](Cc1ccccc1)NC(=O)[C@H](CC(=O)O)NC(=O)[C@H](N)Cc1ccccc1)C(C)C | 0.167 s⁻¹ | 0.11
CC(=O)NCCSC(=O)[C@H](CC(C)C)NC(=O)[C@H](CCCN)NC(=O)[C@H](CCC(N)=O)NC(=O)[C@H](Cc1ccc(O)cc1)NC(=O)[C@H](CCC(N)=O)NC(=O)[C@H](CC(N)=O)NC(=O)[C@@H](Cc1ccccc1)NC(=O)[C@H](Cc1ccccc1)NC(=O)[C@@H]1CCCN1C(=O)[C@H](N)Cc1ccccc1 | 0.233 s⁻¹ | 0.22
CC[C@@H](C)[C@H](NC(=O)[C@H](CC(N)=O)NC(=O)[C@@H](Cc1ccccc1)NC(=O)[C@H](Cc1ccccc1)NC(=O)[C@@H]1CCCN1C(=O)[C@H](N)Cc1ccccc1)C(=O)N[C@@H](Cc1ccc(O)cc1)C(=O)N[C@H](C(=O)N[C@@H](CCCN)C(=O)N[C@@H](CC(C)C)C(=O)SCCNC(C)=O)C(C)C | 0.123 s⁻¹ | 0.09
CC(=O)NCCSC(=O)[C@H](CC(C)C)NC(=O)[C@H](CCCN)NC(=O)[C@@H](NC(=O)[C@H](Cc1ccc(O)cc1)NC(=O)[C@H](CCC(N)=O)NC(=O)[C@H](CC(N)=O)NC(=O)[C@H](CCC(N)=O)NC(=O)[C@H](Cc1ccccc1)NC(=O)[C@@H]1CCCN1C(=O)[C@H](N)Cc1ccccc1)C(C)C | 0.117 s⁻¹ | 0.43
CC(=O)NCCSC(=O)[C@H](CC(C)C)NC(=O)[C@H](CCCN)NC(=O)[C@@H](NC(=O)[C@H](Cc1ccc(O)cc1)NC(=O)[C@H](CCC(N)=O)NC(=O)[C@H](CC(N)=O)NC(=O)[C@H](C)NC(=O)[C@H](Cc1ccccc1)NC(=O)[C@@H]1CCCN1C(=O)[C@H](N)Cc1ccccc1)C(C)C | 0.183 s⁻¹ | 0.6
CC(=O)NCCSC(=O)[C@H](CC(C)C)NC(=O)[C@H](CCCN)NC(=O)[C@@H](NC(=O)[C@H](Cc1ccc(O)cc1)NC(=O)[C@H](CCC(N)=O)NC(=O)[C@H](CC(N)=O)NC(=O)[C@@H](Cc1ccccc1)NC(=O)[C@H](Cc1ccccc1)NC(=O)[C@@H]1CCCN1C(=O)[C@H](N)Cc1ccccc1)C(C)C (stereo in doubt; form 2) | 0.55 s⁻¹ | 2.65
